Values joined by “and” are separate entries in the source; they are usually repeats but may differ in a detail not shown here. Equal entries are not always repeated.
Columns and labels:
HPDE-C7-Kras = experiment: MTT proliferation/viability assay; format: cell-based, human; settings: pancreas
Procedure: (§1) To determine if FGTI-2734 is more efficacious than FT or GGT-1 inhibitors, 10 human cancer pancreatic cell lines, 2 human breast cancer cell lines, 2 human lung cancer cell lines and one human prostate cancer cell line were treated with these inhibitors and determined their effects on the proliferation of these cells by MTT assay.

HPNE-K-ras = experiment: MTT proliferation/viability assay; format: cell-based, human; settings: pancreas
Procedure: as §1

Panc-1 = experiment: MTT proliferation/viability assay; format: cell-based, human; settings: Panc-1, pancreas
Procedure: as §1

A549 = experiment: MTT proliferation/viability assay; format: cell-based, human; settings: A549, lung
Procedure: as §1

Capan-2 = experiment: MTT proliferation/viability assay; format: cell-based, human
Procedure: as §1

HPNE = experiment: MTT proliferation/viability assay; format: cell-based, human; settings: pancreas
Procedure: as §1

MiaPaca = experiment: MTT proliferation/viability assay; format: cell-based, human
Procedure: as §1

MCF-7 = experiment: MTT proliferation/viability assay; format: cell-based, human
Procedure: as §1

ASPC-1 = experiment: MTT proliferation/viability assay; format: cell-based, human
Procedure: as §1

SW1990 = experiment: MTT proliferation/viability assay; format: cell-based, human
Procedure: as §1

BxPC3 = experiment: MTT proliferation/viability assay; format: cell-based, human
Procedure: as §1

HPDE-C7 = experiment: MTT proliferation/viability assay; format: cell-based, human; settings: HPDE-C7, pancreas
Procedure: as §1

[1] = test system: Rap-1A geranylgeranylation; experiment: Western blot of Rap-1A geranylgeranylation/processing (antibody to un-geranylgeranylated Rap-1A) in treated cells; format: cell-based; settings: MiaPaca, MDA-MB-468 and MDA-MB-231 human cancer cells; FIG. 13
Procedure: The ability of FGTI-2734 to inhibit HDJ-2 farnesylation and Rap-1A geranylgeranylation in human cancer cells was determined next. To this end, the MiaPaca pancreatic cancer cell line and 2 breast cancer cell lines (MDA-MB-468 and MDA-MB-231) were treated with various concentration of the dual inhibitor FGTI-2734, the GGT-1 inhibitor GGTI-2418 or the FT inhibitor FTI-2153 and processed for Western blotting.
Testing has shown that the dual farnesyltransferase and geranygeranyltransferase-I inhibitors are effective on pancreatic tumors (90% of all cases), colonic tumors (30% of all cases), lung tumors (30% of all cases), and breast tumors (10% of all cases). NIH-3T3 cells that overexpress oncogenic mutant K-Ras, seen in FIG. 14, and MDA-MB-231 breast cancer cells with a naturally occurring K-Ras mutation, seen in FIG. 15, were treated with indicated concentrations of FGTI-2734, GGTI-2417 or FTI-2153. FGTI-2734 but not FTI-2153 or GGTI-2417 inhibited K-Ras prenylation. As expected, GGTI-2417 inhibited the processing of Rap1 but not HDJ-2 whereas FTI-2153 inhibited the processing of HDJ-2 but not Rap1.
Mammalian target of rapamycin (mTOR) is a serine/threonine phosphatidylinositol 3-kinase-related kinase responsible for cell growth, proliferation, cell survival, protein synthesis, and transcription. Alteration of the mTOR pathway, either through activation of oncogenes or inactivation of tumor suppressors, disrupts a signaling equilibrium and causes malignant transformation. Studies have shown that phosphorylated S6 (pS6) is related to mTOR pathway alterations, and is useful in determining PI3K-based cancer therapies (Aziz, et al. Phosphatidylinositol-3-Kinase as a Therapeutic Target in Melanoma. Clin Cancer Res. 2009, 15; 3029-3036). Two breast adenocarcinoma and a pancreatic carcinoma cell line were treated with indicated concentrations of FGTI-2734, GGTI-2417 or FTI-2153. Protein extracts were run on a Western Blot using antibody against pS6 (ser240/244) (Cell Signaling Technology, Inc., Danvers, Mass.). […]

NCI-H460 = experiment: MTT proliferation/viability assay; format: cell-based; settings: Homo sapiens, NCI-H460, lung
Procedure: as §1

DU-145 = experiment: MTT proliferation/viability assay; format: cell-based, human
Procedure: as §1

## CSCC[C@H](NC(=O)c1ccc(CNCc2cnc[nH]2)cc1-c1ccccc1C)C(=O)O [FTI-2148]
HPDE-C7-Kras
  IC50: > 100 µM
HPNE-K-ras
  IC50: > 100 µM
Panc-1
  IC50: > 100 µM
A549
  IC50: > 100 µM
Capan-2; Capan-2, pancreas
  IC50: > 100 µM
HPNE
  IC50: > 100 µM
MiaPaca; pancreas
  IC50: 1.2 µM
MCF-7; MCF-7, breast
  IC50: > 100 µM and 50 µM
ASPC-1; ASPC-1, pancreas
  IC50: > 100 µM
SW1990; SW1990, pancreas
  IC50: > 100 µM
BxPC3; BxPC3, pancreas
  IC50: > 100 µM
HPDE-C7
  IC50: > 100 µM

## Cc1nc[nH]c1CN1CCN(C(=O)N[C@@H](CC(C)C)C(=O)O)[C@@H](Cc2ccccc2)C1=O [GGTI-2418]
[1]
  inhibition of Rap-1A geranylgeranylation: inhibited selectively
NCI-H460
  IC50: > 100 µM
DU-145; DU-145, prostate
  IC50: > 50 µM
DU-145; Homo sapiens, DU-145, DU-145, prostate
  IC50: > 100 µM
HPDE-C7-Kras; Homo sapiens
  IC50: > 100 µM
HPNE-K-ras; Homo sapiens
  IC50: > 100 µM
Panc-1; Homo sapiens
  IC50: > 100 µM
A549; Homo sapiens
  IC50: > 100 µM
Capan-2; Homo sapiens, Capan-2, Capan-2, pancreas
  IC50: > 100 µM
HPNE; Homo sapiens
  IC50: > 100 µM
MiaPaca; Homo sapiens, MIA PaCa-2, pancreas
  IC50: > 100 µM
MCF-7; Homo sapiens, MCF7, MCF-7, breast
  IC50: > 100 µM
ASPC-1; Homo sapiens, ASPC1, ASPC-1, pancreas
  IC50: > 100 µM
SW1990; Homo sapiens, SW1990, SW1990, pancreas
  IC50: > 100 µM
BxPC3; Homo sapiens, BXPC-3, BxPC3, pancreas
  IC50: > 100 µM
HPDE-C7; Homo sapiens
  IC50: > 100 µM

— US9040563B2, “Dual inhibitors of farnesyltransferase and geranylgeranyltransferase I” (H. Lee Moffitt Cancer Center and Research Institute, Inc., priority 2010, dated 2015)
